Measurements published in PubChem BioAssay AID330 (DTP/NCI, 2004).
Values joined by “and” are separate entries in the source; they are usually repeats but may differ in a detail not shown here. Equal values may be shown once. Inconclusive results and toxic doses are left out. How the source made its calls: active means survival T/C of 150% or more; inactive means T/C below 125% in these data. Peptide text beside a SMILES is read from it. * marks the point of attachment. Propionyl = CCC(=O)*; Bn = c1ccc(C*)cc1

Test system: P388 leukemia ip, CD2F1 mice, survival T/C
Test: NCI In Vivo Anticancer Drug Screen. Data for tumor model P388 Leukemia (intraperitoneal) in CD2F1 (CDF1) mice
Settings: endpoint: median survival time, higher = longer survival
Summary of the method: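 Mice carrying the transplanted tumor received test compound or vehicle. Survival was recorded in each group, and the value is the treated-group measurement divided by that of the vehicle-treated control group.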

[1] = dose: 50.0 mg/kg/injection, schedule: Q01DX005 (ip), vehicle: saline
[2] = dose: 100.0 mg/kg/injection, schedule: Q01DX005 (ip), vehicle: saline
[3] = dose: 200.0 mg/kg/injection, schedule: Q01DX005 (ip), vehicle: saline
[4] = dose: 50.0 mg/kg/injection, schedule: Q01DX005 (ip), vehicle: Klucel (hydroxypropylcellulose) (HPC)
[5] = dose: 100.0 mg/kg/injection, schedule: Q01DX005 (ip), vehicle: Klucel (hydroxypropylcellulose) (HPC)
[6] = dose: 200.0 mg/kg/injection, schedule: Q01DX005 (ip), vehicle: Klucel (hydroxypropylcellulose) (HPC)
[7] = dose: 100.0 mg/kg/injection, schedule: Q01DX001 (ip), vehicle: Klucel (hydroxypropylcellulose) (HPC)
[8] = dose: 50.0 mg/kg/injection, schedule: Q01DX009 (ip), vehicle: Klucel (hydroxypropylcellulose) (HPC)
[9] = dose: 100.0 mg/kg/injection, schedule: Q01DX009 (ip), vehicle: Klucel (hydroxypropylcellulose) (HPC)
[10] = dose: 50.0 mg/kg/injection, schedule: Q01DX009 (ip), vehicle: saline with Tween-80
[11] = dose: 100.0 mg/kg/injection, schedule: Q01DX009 (ip), vehicle: saline with Tween-80
[12] = dose: 200.0 mg/kg/injection, schedule: Q01DX009 (ip), vehicle: saline with Tween-80
[13] = dose: 25.0 mg/kg/injection, schedule: Q01DX009 (ip), vehicle: saline with Tween-80

Measured: T/C

CCCCCC[CH2][Sn]([Cl])([CH2]C)[O][Sn]([Cl])([CH2]C)[CH2]CCCCCC (stereo unspecified)
inactive: dose: 12.5 mg/kg/injection, schedule: Q01DX005 (ip), vehicle: saline 86 % of control | dose: 25.0 mg/kg/injection, schedule: Q01DX005 (ip), vehicle: saline 86 % of control | [1] 98 % of control and 90 % of control | [2] 110 % of control | [3] 98 % of control

ClCCN(CCCl)c1ccc(/C=N/Nc2ccc3ccccc3n2)cc1
inactive: dose: 100.0 mg/kg/injection, schedule: Q04DX003 (ip), vehicle: saline with Tween-80 110 % of control | dose: 200.0 mg/kg/injection, schedule: Q04DX003 (ip), vehicle: saline with Tween-80 109 % of control | dose: 400.0 mg/kg/injection, schedule: Q04DX003 (ip), vehicle: saline with Tween-80 106 % of control

O=c1nc2sccn2c2ncccc12
inactive: dose: 3.75 mg/kg/injection, schedule: Q01DX005 (ip), vehicle: saline with Tween-80 96 % of control | dose: 7.5 mg/kg/injection, schedule: Q01DX005 (ip), vehicle: saline with Tween-80 94 % of control | dose: 15.0 mg/kg/injection, schedule: Q01DX005 (ip), vehicle: saline with Tween-80 88 % of control

COC(=O)C1(CC(=O)C2CC2)NC(=S)NC(=O)C1C#N (stereo unspecified)
inactive: dose: 60.0 mg/kg/injection, schedule: Q01DX005 (ip), vehicle: Klucel (hydroxypropylcellulose) (HPC) 103 % of control | dose: 120.0 mg/kg/injection, schedule: Q01DX005 (ip), vehicle: Klucel (hydroxypropylcellulose) (HPC) 100 % of control | dose: 240.0 mg/kg/injection, schedule: Q01DX005 (ip), vehicle: Klucel (hydroxypropylcellulose) (HPC) 100 % of control

COc1ccn(C2CCCO2)c(=O)n1 (stereo unspecified)
inactive: [1] 95 % of control | [2] 100 % of control | [3] 88 % of control

c1c[nH]c(C2Nc3ccccc3CO2)c1 (stereo unspecified)
inactive: [4] 115 % of control | [5] 107 % of control | [6] 112 % of control

CC(C)Cc1nccs1.CC(C)Cc1nccs1.CC(C)Cc1nccs1.CC(C)Cc1nccs1.[Cl][Rh][Cl]
inactive: dose: 25.0 mg/kg/injection, schedule: Q01DX001 (ip), vehicle: Klucel (hydroxypropylcellulose) (HPC) 108 % of control | dose: 50.0 mg/kg/injection, schedule: Q01DX001 (ip), vehicle: Klucel (hydroxypropylcellulose) (HPC) 100 % of control | [7] 112 % of control

CCCCCCC[CH2][Sn]([CH2]C)([CH2]C)[O]C(C)=O
inactive: dose: 0.25 mg/kg/injection, schedule: Q01DX009 (ip), vehicle: saline with Tween-80 122 % of control

O=c1cc(Nc2ccc(Br)cc2)[nH]c(=O)[nH]1
inactive: dose: 60.0 mg/kg/injection, schedule: Q01DX005 (ip), vehicle: saline with Tween-80 94 % of control | dose: 120.0 mg/kg/injection, schedule: Q01DX005 (ip), vehicle: saline with Tween-80 100 % of control | dose: 240.0 mg/kg/injection, schedule: Q01DX005 (ip), vehicle: saline with Tween-80 102 % of control

C#CC1OC12CCC1C3CC=C4CC(O)CCC4(C)C3CCC12 (stereo unspecified)
inactive: dose: 50.0 mg/kg/injection, schedule: Q01DX009 (ip), vehicle: suspension in saline 93 % of control | dose: 100.0 mg/kg/injection, schedule: Q01DX009 (ip), vehicle: suspension in saline 94 % of control | dose: 200.0 mg/kg/injection, schedule: Q01DX009 (ip), vehicle: suspension in saline 87 % of control

NC(=NCc1ccncc1)N/N=C\c1ccnc2ccccc12
inactive: dose: 60.0 mg/kg/injection, schedule: Q01DX005 (ip), vehicle: saline 107 % of control | dose: 120.0 mg/kg/injection, schedule: Q01DX005 (ip), vehicle: saline 106 % of control

Cc1nn(C(=O)c2ccncc2)c(C)c1N=Nc1ccc(S(N)(=O)=O)cc1
inactive: [8] 105 % of control | [9] 101 % of control

COc1cc(C)nc2ccc(Cc3ccc4nc(C)cc(OC)c4c3)cc12
inactive: dose: 25.0 mg/kg/injection, schedule: Q04DX003 (ip), vehicle: saline with Tween-80 94 % of control | dose: 50.0 mg/kg/injection, schedule: Q04DX003 (ip), vehicle: saline with Tween-80 91 % of control

CC(C)=CCc1cc2c(cc1O)OC[C@H]1c3cc4c(cc3O[C@@H]21)OCO4
inactive: [7] 91 % of control | dose: 200.0 mg/kg/injection, schedule: Q01DX001 (ip), vehicle: Klucel (hydroxypropylcellulose) (HPC) 96 % of control | dose: 400.0 mg/kg/injection, schedule: Q01DX001 (ip), vehicle: Klucel (hydroxypropylcellulose) (HPC) 91 % of control

CN1C(=O)c2ccc3c4ccc5c6c(ccc(c7ccc(c2c37)C1=O)c64)C(=O)N(c1ccccc1)C5=O
inactive: [4] 87 % of control | [5] 86 % of control | [6] 86 % of control

CCC(=O)NC(CSCc1ccccc1)C(=O)NC(CCC(=O)OC)C(=O)OC (stereo unspecified) (Propionyl-Cys(Bn)-Glu(OMe)-OMe; configuration not given here)
inactive: [10] 110 % of control | [11] 100 % of control | [12] 97 % of control

CCS/C(SC)=C(/c1ccccc1)[P+](c1ccccc1)(c1ccccc1)c1ccccc1
inactive: dose: 3.12 mg/kg/injection, schedule: Q01DX005 (ip), vehicle: Klucel (hydroxypropylcellulose) (HPC) 106 % of control | dose: 12.5 mg/kg/injection, schedule: Q01DX005 (ip), vehicle: Klucel (hydroxypropylcellulose) (HPC) 117 % of control

O=c1[nH]cc(Br)c2sccc12
inactive: [13] 109 % of control | [10] 109 % of control | [11] 109 % of control

CC(C)=CCC/C(C)=C/CC/C(C)=C/CC/C(C)=C/C=C/C=C(\C)CC/C=C(\C)CC/C=C(\C)CCC=C(C)C
inactive: dose: 17.5 mg/kg/injection, schedule: Q01DX005 (ip), vehicle: saline 101 % of control | dose: 35.0 mg/kg/injection, schedule: Q01DX005 (ip), vehicle: saline 100 % of control | dose: 70.0 mg/kg/injection, schedule: Q01DX005 (ip), vehicle: saline 95 % of control | dose: 140.0 mg/kg/injection, schedule: Q01DX005 (ip), vehicle: saline 104 % of control

C[S+](C)c1ccc(Cl)cc1
inactive: dose: 12.5 mg/kg/injection, schedule: Q01DX009 (ip), vehicle: saline 95 % of control | dose: 25.0 mg/kg/injection, schedule: Q01DX009 (ip), vehicle: saline 91 % of control | dose: 50.0 mg/kg/injection, schedule: Q01DX009 (ip), vehicle: saline 108 % of control

CC(=O)Nc1cc(C)cc(C(=O)O)c1C
inactive: [10] 97 % of control | [11] 100 % of control | [12] 98 % of control | dose: 400.0 mg/kg/injection, schedule: Q01DX009 (ip), vehicle: saline with Tween-80 98 % of control

Cc1cn(C2OC(CO)C(O)C2O)c(=O)nc1N (stereo unspecified)
inactive: dose: 25.0 mg/kg/injection, schedule: Q01DX005 (ip), vehicle: water 104 % of control | dose: 50.0 mg/kg/injection, schedule: Q01DX005 (ip), vehicle: water 101 % of control | dose: 100.0 mg/kg/injection, schedule: Q01DX005 (ip), vehicle: water 100 % of control | dose: 200.0 mg/kg/injection, schedule: Q01DX005 (ip), vehicle: water 96 % of control

CC1=C2C3OC(=O)C(C)C3CCC2(C)CCC1=O (stereo unspecified)
inactive: dose: 12.5 mg/kg/injection, schedule: Q04DX002 (ip), vehicle: saline with Tween-80 107 % of control | dose: 25.0 mg/kg/injection, schedule: Q04DX002 (ip), vehicle: saline with Tween-80 91 % of control | dose: 50.0 mg/kg/injection, schedule: Q04DX002 (ip), vehicle: saline with Tween-80 91 % of control

CC(NC(=O)C(Cl)Cl)C(=O)O (stereo unspecified)
inactive: [4] 96 % of control | [5] 99 % of control | [6] 96 % of control

O=S(=O)(O)OOS(=O)(=O)O
inactive: [8] 100 % of control | [9] 87 % of control

CC(C)CCC1(CCBr)C(=O)NC(=Nc2ccccc2)NC1=O (stereo unspecified)
inactive: [13] 96 % of control | [10] 98 % of control | [11] 100 % of control | [12] 100 % of control

C=C(NC(=O)c1csc(-c2nc3c(cc2O)-c2nc(cs2)C(=O)NC(C(C)O)C(=O)N/C(=C\C)c2nc(cs2)C(=O)NC2CC(O)C(=O)OCc4cccc5[nH]c(c(C)c45)C(=O)SCC(NC(=O)c4csc2n4)c2nc-3cs2)n1)C(N)=O (stereo unspecified)
inactive: dose: 15.0 mg/kg/injection, schedule: Q01DX009 (ip), vehicle: Klucel (hydroxypropylcellulose) (HPC) 100 % of control | dose: 30.0 mg/kg/injection, schedule: Q01DX009 (ip), vehicle: Klucel (hydroxypropylcellulose) (HPC) 99 % of control | dose: 60.0 mg/kg/injection, schedule: Q01DX009 (ip), vehicle: Klucel (hydroxypropylcellulose) (HPC) 91 % of control | dose: 120.0 mg/kg/injection, schedule: Q01DX009 (ip), vehicle: Klucel (hydroxypropylcellulose) (HPC) 88 % of control
